Assay results: PMC12799362, “The effect of dimeric bisbenzimidazoles on the activity of DNA repair enzymes TDP1, TDP2, PARP1 and PARP2” (Vavilov Journal of Genetics and Breeding, 2025)

Tests used:
[1] = biological target: T1, tyrosyl-DNA phosphodiesterase 2 (TDP2) (Homo sapiens, UniProt O95551); experiment: TDP2 activity, removal of 5′-tyrosine from oligonucleotide substrate, denaturing PAGE; format: biochemical; details: inhibitor 500 μM, TDP2 200 nM, substrate 100 nM, 10 min, 37 °C; mean ± SD; read-out: TDP2 % of residual activity (500 μM)
T1 construct: made in house; host or cells: E. coli
T1 sequence (O95551 1-362): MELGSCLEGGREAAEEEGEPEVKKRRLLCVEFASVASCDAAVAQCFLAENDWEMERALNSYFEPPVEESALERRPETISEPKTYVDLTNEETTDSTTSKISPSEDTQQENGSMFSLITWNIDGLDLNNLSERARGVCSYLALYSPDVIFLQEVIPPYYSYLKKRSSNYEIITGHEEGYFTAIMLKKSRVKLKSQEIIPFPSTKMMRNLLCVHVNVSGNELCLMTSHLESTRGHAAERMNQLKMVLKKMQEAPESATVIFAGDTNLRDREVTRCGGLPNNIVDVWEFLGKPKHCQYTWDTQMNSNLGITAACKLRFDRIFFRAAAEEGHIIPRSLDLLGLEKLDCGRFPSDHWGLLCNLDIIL
From the text: (§1) Recombinant human proteins tyrosyl-DNA phosphodiesterase 1 (TDP1) and tyrosyl-DNA phosphodiesterase 2 (TDP2) were expressed in the E. coli system, poly(ADP-ribose) polymerase 1 (PARP1) and poly(ADP-ribose) polymerase 2 (PARP2) were expressed in insect cells using a baculovirus expression system and purified as described in (Sukhanova et al., 2004; Sherstyuk et al., 2019; Dyrkheeva et al., 2020, 2021).
Determination of TDP2 activity. For determination of TDP2 enzyme activity, an oligonucleotide 5′-tyrosine-AAC GTC AGG GTC TTC C-FAM-3′ containing a 6-FAM label at the 3′-end and an L-tyrosine residue attached via the phenolic OH group to the 5′-terminal phosphate was used as substrate, synthesized at the Russian-French-Japanese Laboratory of Bionanotechnology of Novosibirsk State University as described in (Dyrkheeva et al., 2021). The substrate at a concentration of 100 nM was incubated with TDP2 at a concentration of 200 nM in the absence or presence of inhibitor (500 μM) for 10 min at 37 °C in buffer containing 50 mM Tris-HCl, pH 8.0, 50 mM NaCl, 7 mM β-mercaptoethanol (Dyrkheeva et al., 2021). The reaction was stopped by addition of PAGE loading buffer (TBE, 10 % formamide, 7 M urea, 20 mM EDTA, 0.1 % xylene cyanol, and 0.1 % bromophenol blue). The samples were then heated at 90 °C for 5 min. The enzymatic reaction products were separated by electrophoresis in 20 % denaturing PAGE with 7 M urea at an acrylamide to bisacrylamide ratio of 19:1. A high-resolution Typhoon FLA 9500 laser scanner (GE Healthcare, Chicago, Illinois, USA) was used for gel scanning and visualization, and the data were analyzed using QuantityOne 4.6.7 software (Bio- Rad Laboratories, Inc., Hercules, California, USA). At least three independent experiments were performed, and statistical processing was carried out using OriginPro 8.6.0 (OriginLab, Northampton, Massachusetts, USA).
To study the effect of the studied compounds on TDP2 activity, we tested the ability of this enzyme to remove the tyrosine residue from the 5′-end of the oligonucleotide substrate in the absence and presence of inhibitors, as described in (Dyrkheeva et al., 2021).

[2] = biological target: T2, tyrosyl-DNA phosphodiesterase 1 (TDP1) (Homo sapiens, UniProt Q9NUW8); experiment: Real-time fluorescent detection of TDP1 activity (BHQ1 cleavage from 3′-end of single-stranded FAM oligonucleotide); format: biochemical; details: recombinant TDP1 1.5 nM, 50 nM single-stranded oligonucleotide, 26 °C; mean ± SD, at least three replicates
T2 construct: made in house; host or cells: E. coli
T2 sequence (Q9NUW8 whole entry): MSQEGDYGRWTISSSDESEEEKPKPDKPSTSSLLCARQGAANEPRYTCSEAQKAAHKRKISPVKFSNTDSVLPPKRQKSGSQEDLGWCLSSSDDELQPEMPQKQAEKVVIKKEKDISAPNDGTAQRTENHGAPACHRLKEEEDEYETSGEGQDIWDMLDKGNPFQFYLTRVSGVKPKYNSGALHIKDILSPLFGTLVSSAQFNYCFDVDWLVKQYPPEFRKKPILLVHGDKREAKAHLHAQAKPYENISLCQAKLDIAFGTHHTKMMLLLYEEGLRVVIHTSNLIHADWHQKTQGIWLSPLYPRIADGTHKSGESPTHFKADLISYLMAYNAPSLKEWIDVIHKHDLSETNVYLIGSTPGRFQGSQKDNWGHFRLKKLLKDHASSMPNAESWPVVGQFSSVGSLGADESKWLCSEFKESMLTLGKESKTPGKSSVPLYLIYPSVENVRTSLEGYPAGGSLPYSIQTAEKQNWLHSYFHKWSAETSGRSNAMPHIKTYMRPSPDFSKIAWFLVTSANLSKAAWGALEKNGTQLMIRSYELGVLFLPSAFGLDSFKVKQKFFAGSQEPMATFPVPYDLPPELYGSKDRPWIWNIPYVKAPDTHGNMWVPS
Procedure: as §1
Determination of TDP1 activity. The reaction mixture (200 μl) for real-time fluorescent detection of TDP1 enzyme activity (Zakharenko et al., 2015) contained TDP1 reaction buffer (50 mM Tris-HCl, pH 8.0, 50 mM NaCl, and 7 mM β-mercaptoethanol), 50 nM oligonucleotide 5′-FAM-AAC GTC AGG GTC TTC C-BHQ1-3′, the test compound at various concentrations, and TDP1 at a final concentration of 1.5 nM. The reaction mixtures were incubated at a constant temperature of 26 °C in a POLARstar OPTIMA microplate fluorometer (BMG LABTECH, GmbH, Ortenberg, Germany). Fluorescence intensity (Ex485/Em520 nm) was measured every minute for 10 min. Mean values of half-maximal inhibitory concentration (IC50 – the concentration of the compound that inhibited 50 % of enzyme activity compared to the untreated control well containing only enzyme and substrate) were determined using a dose-response curve of the fluorescence signal level versus inhibitor concentration and calculated using MARS Data Analysis 2.0 (BMG LABTECH). Kinetic curves were obtained in at least three independent experiments and statistically processed in OriginPro 8.6.0 (OriginLab, Northampton, Massachusetts, USA).
The third group of compounds includes derivatives of the monomeric compound MB2Py(Ac), which is an isosteric analog of MB3, due to the fact that the pyrrolecarboxamide fragment contained in its structure can act as a hydrogen atom donor at the carboxamide nitrogen for hydrogen bond formation, in a position analogous to benzimidazole. Dimeric derivatives are represented by the DB2Py(n) series containing n-alkyldicarboxylic acids as a linker. This series is represented by a set of compounds containing 1, 3, 4, 5, 7, 9, and 11 methylene units, which allowed for a more accurate assessment of the dependence of the inhibitory activity of compounds on spacer length. The DB2Py(n) series differs from the DB3(n) series by the presence, in addition to the bisbenzimidazole structure, of a pyrrolecarboxamide structure, which is a fragment of the AT-specific antibiotic netropsin.Using the real-time fluorescence analysis method, halfmaximal inhibitory concentration (IC50) values of the studied compounds (see the Table) were obtained in the reaction of BHQ1 cleavage from the 3′-end of the oligonucleotide by TDP1, which led to an increase in FAM fluorescence at the 5′-end of the chain (Zakharenko et al., 2015). It should also be noted that a single-stranded oligonucleotide was used as substrate to exclude the binding of dimeric bisbenzimidazoles as minor-groove ligands to the DNA substrate and direct their action toward the enzymatic target.

[3] = biological target: T3, poly(ADP-ribose) polymerase 1 (PARP1) (Homo sapiens, UniProt P09874); experiment: PARP1 auto-poly(ADP-ribosyl)ation with [32P]-NAD+; format: biochemical; details: compound 500 μM, PARP1 200 nM, 0.3 mM [32P]-NAD+, 2 min, 37 °C; mean ± SD; read-out: PARP1 % of residual activity (500 μM)
T3 construct: made in house; host or cells: insect cells (baculovirus expression system)
T3 sequence (P09874 whole entry): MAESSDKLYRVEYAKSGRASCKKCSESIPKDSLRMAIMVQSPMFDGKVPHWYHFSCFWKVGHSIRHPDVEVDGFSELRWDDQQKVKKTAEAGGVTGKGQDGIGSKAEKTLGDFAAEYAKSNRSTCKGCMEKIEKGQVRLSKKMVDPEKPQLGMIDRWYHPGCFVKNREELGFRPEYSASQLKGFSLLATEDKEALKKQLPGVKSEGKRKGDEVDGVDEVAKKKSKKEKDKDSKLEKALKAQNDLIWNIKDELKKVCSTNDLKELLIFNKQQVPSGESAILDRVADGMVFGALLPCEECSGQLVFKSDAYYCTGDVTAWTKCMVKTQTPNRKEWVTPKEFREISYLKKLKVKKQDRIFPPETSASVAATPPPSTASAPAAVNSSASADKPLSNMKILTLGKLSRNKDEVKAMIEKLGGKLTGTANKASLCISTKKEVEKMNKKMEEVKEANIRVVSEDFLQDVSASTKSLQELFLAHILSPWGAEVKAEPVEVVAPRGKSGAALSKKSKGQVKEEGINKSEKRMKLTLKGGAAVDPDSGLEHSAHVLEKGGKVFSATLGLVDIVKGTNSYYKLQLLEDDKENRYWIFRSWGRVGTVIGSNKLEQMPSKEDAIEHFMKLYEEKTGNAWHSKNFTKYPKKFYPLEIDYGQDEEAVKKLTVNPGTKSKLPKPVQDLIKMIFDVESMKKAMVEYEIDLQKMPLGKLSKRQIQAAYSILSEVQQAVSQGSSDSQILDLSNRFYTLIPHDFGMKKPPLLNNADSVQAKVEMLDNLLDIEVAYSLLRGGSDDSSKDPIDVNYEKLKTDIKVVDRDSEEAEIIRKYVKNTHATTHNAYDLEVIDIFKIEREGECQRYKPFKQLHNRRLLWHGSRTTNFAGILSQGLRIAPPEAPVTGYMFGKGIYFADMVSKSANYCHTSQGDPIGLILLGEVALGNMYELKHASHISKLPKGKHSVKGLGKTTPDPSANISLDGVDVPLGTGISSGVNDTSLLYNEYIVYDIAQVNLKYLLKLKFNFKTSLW
From the text: as §1
(§2) Determination of PARP1 and PARP2 activity. For determination of PARP1 and PARP2 enzyme activity in the presence and absence of test compounds, radiolabeled [32P]-NAD⁺ was synthesized from α-[32P]-ATP according to the protocol (Sherstyuk et al., 2019). The auto-poly(ADPribosyl) ation reaction was performed in buffer for PARP1: 50 mM Tris-HCl, pH 8.0, 10 mM MgCl2, 150 mM NaCl, and 7 mM β-mercaptoethanol, as well as 2 A260 units/ml activated DNA, 0.3 mM [32P]-NAD⁺ at 37 °C. The reaction was initiated by addition of PARP1 to 200 nM and carried out for 2 min
(§3) The buffer for PARP2 contained: 50 mM Tris-HCl, pH 8.0, 3 mM spermine, 150 mM NaCl, and 7 mM β-mercaptoethanol, 2 A260 units/ml activated DNA, 0.6 mM [32P]-NAD⁺ at 37 °C. The reaction was initiated by addition of PARP2 to 600 nM, and the reaction mixtures were incubated for 5 min. The reaction was stopped by placing 5 μl aliquots on Whatman 1 paper filters impregnated with 5 % trichloroacetic acid (TCA). The filters were washed with 5 % TCA four times and air-dried after removal of TCA with 90 % ethanol. The incorporation of the radioactive label into the reaction product was calculated using a Typhoon FLA 9500 scanner (GE Healthcare, Chicago, Illinois, USA). At least three independent experiments were performed.

[4] = test system: poly(ADP-ribose) polymerase 2 (PARP2); experiment: PARP2 auto-poly(ADP-ribosyl)ation with [32P]-NAD+; format: biochemical, human; details: compound 500 μM, PARP2 600 nM, 0.6 mM [32P]-NAD+, 5 min, 37 °C; mean ± SD
From the text: as §1, §2, §3

SMILES | remaining activity at 500 µM [1] [%] | IC50 [2] [nM] | remaining activity at 500 µM [3] [%] | PARP2 % of residual activity (500 μM) [4]
CN1CCN(c2ccc3nc(-c4ccc5nc(-c6ccc7nc(CNC(=O)CCCCCC(=O)NCc8nc9ccc(-c%10nc%11ccc(-c%12nc%13ccc(N%14CCN(C)CC%14)cc%13[nH]%12)cc%11[nH]%10)cc9[nH]8)[nH]c7c6)[nH]c5c4)[nH]c3c2)CC1 [DB3(5)] | 65 ± 10 | > 50000 | 62 ± 16 | ~ 100%
CN1CCN(c2ccc3nc(-c4ccc5nc(-c6ccc7nc(CNC(=O)CCCCCCCCCC(=O)NCc8nc9ccc(-c%10nc%11ccc(-c%12nc%13ccc(N%14CCN(C)CC%14)cc%13[nH]%12)cc%11[nH]%10)cc9[nH]8)[nH]c7c6)[nH]c5c4)[nH]c3c2)CC1 [DB3(9)] | ~100 | > 50000 | ~100 | ~ 100%
CN1CCN(c2ccc3nc(-c4ccc5nc(-c6ccc7nc(CNC(=O)CN8CCN(CC(=O)NCc9nc%10ccc(-c%11nc%12ccc(-c%13nc%14ccc(N%15CCN(C)CC%15)cc%14[nH]%13)cc%12[nH]%11)cc%10[nH]9)CC8)[nH]c7c6)[nH]c5c4)[nH]c3c2)CC1 [DB3P(1)] | ~100 | 100 ± 50 | 70 ± 12 | ~ 100%
CN1CCN(c2ccc3nc(-c4ccc5nc(-c6ccc7nc(CNC(=O)CCN8CCN(CCC(=O)NCc9nc%10ccc(-c%11nc%12ccc(-c%13nc%14ccc(N%15CCN(C)CC%15)cc%14[nH]%13)cc%12[nH]%11)cc%10[nH]9)CC8)[nH]c7c6)[nH]c5c4)[nH]c3c2)CC1 [DB3P(2)] | ~100 | 110 ± 10 | 40 ± 5 | ~ 100%
CN1CCN(c2ccc3nc(-c4ccc5nc(-c6ccc7nc(CNC(=O)CCCN8CCN(CCCC(=O)NCc9nc%10ccc(-c%11nc%12ccc(-c%13nc%14ccc(N%15CCN(C)CC%15)cc%14[nH]%13)cc%12[nH]%11)cc%10[nH]9)CC8)[nH]c7c6)[nH]c5c4)[nH]c3c2)CC1 [DB3P(3)] | ~100 | 200 ± 50 | 47 ± 14 | ~ 100%
CN1CCN(c2ccc3nc(-c4ccc5nc(-c6ccc7nc(CNC(=O)CCCCN8CCN(CCCCC(=O)NCc9nc%10ccc(-c%11nc%12ccc(-c%13nc%14ccc(N%15CCN(C)CC%15)cc%14[nH]%13)cc%12[nH]%11)cc%10[nH]9)CC8)[nH]c7c6)[nH]c5c4)[nH]c3c2)CC1 [DB3P(4)] | ~100 | 150 ± 30 | 48 ± 15 | ~ 100%
CC(=O)NCc1nc2ccc(-c3nc4ccc(N5CCN(C)CC5)cc4[nH]3)cc2[nH]1 [MB2(Ac)] | ~100 | 1500 ± 500 | ~100 | ~ 100%
CCCn1cc(NC(C)=O)cc1-c1nc2ccc(-c3nc4ccc(N5CCN(C)CC5)cc4[nH]3)cc2[nH]1 [MB2Py(Ac)] | ~100 | 5000 ± 2000 | ~100 | ~ 100%
CN1CCN(c2ccc3nc(-c4ccc5nc(CN)[nH]c5c4)[nH]c3c2)CC1 [MB2] | ~100 | 2000 ± 1000 | ~100 | ~ 100%
CN1CCN(c2ccc3nc(-c4ccc5nc(-c6ccc7nc(CN)[nH]c7c6)[nH]c5c4)[nH]c3c2)CC1 [MB3] | ~100 | 700 ± 50 | 65 ± 15 | ~ 100%
